Assay results taken from the supplement of paper PMC10307832.

Assays:
Experiment in all cases: relative viability (nuclei count vs DMSO), 5 days (fraction); higher = more cells survive
XMD14-99 + Alpelisib = compound: CN1CCN(CC1)C2=CC(=C(C=C2)NC3=NC(=C(S3)C(=O)C4=C(C=CC=C4Cl)Cl)N)OC [XMD14-99] + Cc1nc(NC(=O)N2CCC[C@H]2C(N)=O)sc1-c1ccnc(C(C)(C)C(F)(F)F)c1 [Alpelisib] (partner 2 µM)
Method in brief: (§1)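 Five library-drug doses in √10 steps were combined with a fixed anchor-drug dose, or a single drug was given alone, by pin tool to lung cancer cell lines in 1536-well plates the day after seeding. Nuclei were stained and counted after 5 days. Relative viability is the nuclei count in treated wells over that in vehicle wells, taken as the median of duplicate plates.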

AZD1208 + Bortezomib = compound: N[C@@H]1CCCN(c2c(/C=C3\SC(=O)NC3=O)cccc2-c2ccccc2)C1 [AZD1208] + CC(C)C[C@H](NC(=O)[C@H](Cc1ccccc1)NC(=O)c1cnccn1)B(O)O [Bortezomib] (partner 0.002 µM)
Method in brief: as §1

AZD1208 + Linsitinib = compound: N[C@@H]1CCCN(c2c(/C=C3\SC(=O)NC3=O)cccc2-c2ccccc2)C1 [AZD1208] + C[C@]1(O)C[C@@H](c2nc(-c3ccc4ccc(-c5ccccc5)nc4c3)c3c(N)nccn32)C1 [Linsitinib] (partner 1 µM)
Method in brief: as §1

XMD14-99 + Olaparib = compound: CN1CCN(CC1)C2=CC(=C(C=C2)NC3=NC(=C(S3)C(=O)C4=C(C=CC=C4Cl)Cl)N)OC [XMD14-99] + O=C(c1cc(Cc2n[nH]c(=O)c3ccccc23)ccc1F)N1CCN(C(=O)C2CC2)CC1 [Olaparib] (partner 8 µM)
Method in brief: as §1

LCLC-103H
relative viability (XMD14-99 + Alpelisib; first compound 0.08 µM): 0.867 | relative viability (XMD14-99 + Alpelisib; first compound 0.8 µM): 1.04 | relative viability (XMD14-99 + Alpelisib; first compound 2.53 µM): 0.959 | relative viability (XMD14-99 + Alpelisib; first compound 8 µM): 0.863 | relative viability (AZD1208 + Bortezomib; first compound 0.08 µM): 1.01 | relative viability (AZD1208 + Bortezomib; first compound 0.253 µM): 1.12 | relative viability (AZD1208 + Bortezomib; first compound 0.8 µM): 1.02 | relative viability (AZD1208 + Bortezomib; first compound 2.53 µM): 0.949 | relative viability (AZD1208 + Bortezomib; first compound 8 µM): 0.85 | relative viability (AZD1208 + Linsitinib; first compound 0.08 µM): 1.04 | relative viability (AZD1208 + Linsitinib; first compound 0.253 µM): 1.09 | relative viability (AZD1208 + Linsitinib; first compound 0.8 µM): 1.06 | relative viability (AZD1208 + Linsitinib; first compound 2.53 µM): 1.11 | relative viability (AZD1208 + Linsitinib; first compound 8 µM): 0.891 | relative viability (XMD14-99 + Olaparib; first compound 0.08 µM): 0.764 | relative viability (XMD14-99 + Olaparib; first compound 0.8 µM): 0.779 | relative viability (XMD14-99 + Olaparib; first compound 2.53 µM): 0.752 | relative viability (XMD14-99 + Olaparib; first compound 8 µM): 0.657

RERF-LC-KJ
relative viability (XMD14-99 + Alpelisib; first compound 0.08 µM): 0.718 | relative viability (XMD14-99 + Alpelisib; first compound 0.8 µM): 0.917 | relative viability (XMD14-99 + Alpelisib; first compound 2.53 µM): 0.75 | relative viability (XMD14-99 + Alpelisib; first compound 8 µM): 0.588 | relative viability (AZD1208 + Bortezomib; first compound 0.08 µM): 1.1 | relative viability (AZD1208 + Bortezomib; first compound 0.253 µM): 1.21 | relative viability (AZD1208 + Bortezomib; first compound 0.8 µM): 1.06 | relative viability (AZD1208 + Bortezomib; first compound 2.53 µM): 1 | relative viability (AZD1208 + Bortezomib; first compound 8 µM): 0.818 | relative viability (AZD1208 + Linsitinib; first compound 0.08 µM): 0.892 | relative viability (AZD1208 + Linsitinib; first compound 0.253 µM): 0.883 | relative viability (AZD1208 + Linsitinib; first compound 0.8 µM): 0.815 | relative viability (AZD1208 + Linsitinib; first compound 2.53 µM): 0.794 | relative viability (AZD1208 + Linsitinib; first compound 8 µM): 0.702 | relative viability (XMD14-99 + Olaparib; first compound 0.08 µM): 0.986 | relative viability (XMD14-99 + Olaparib; first compound 0.8 µM): 0.856 | relative viability (XMD14-99 + Olaparib; first compound 2.53 µM): 0.882 | relative viability (XMD14-99 + Olaparib; first compound 8 µM): 0.648

BEN
relative viability (XMD14-99 + Alpelisib; first compound 0.08 µM): 0.94 | relative viability (XMD14-99 + Alpelisib; first compound 0.8 µM): 0.936 | relative viability (XMD14-99 + Alpelisib; first compound 2.53 µM): 0.854 | relative viability (XMD14-99 + Alpelisib; first compound 8 µM): 0.801 | relative viability (AZD1208 + Bortezomib; first compound 0.08 µM): 0.796 | relative viability (AZD1208 + Bortezomib; first compound 0.253 µM): 0.763 | relative viability (AZD1208 + Bortezomib; first compound 0.8 µM): 0.495 | relative viability (AZD1208 + Bortezomib; first compound 2.53 µM): 0.636 | relative viability (AZD1208 + Bortezomib; first compound 8 µM): 0.475 | relative viability (AZD1208 + Linsitinib; first compound 0.08 µM): 0.815 | relative viability (AZD1208 + Linsitinib; first compound 0.253 µM): 0.806 | relative viability (AZD1208 + Linsitinib; first compound 0.8 µM): 0.654 | relative viability (AZD1208 + Linsitinib; first compound 2.53 µM): 0.572 | relative viability (AZD1208 + Linsitinib; first compound 8 µM): 0.46 | relative viability (XMD14-99 + Olaparib; first compound 0.08 µM): 0.979 | relative viability (XMD14-99 + Olaparib; first compound 0.8 µM): 1.06 | relative viability (XMD14-99 + Olaparib; first compound 2.53 µM): 0.786 | relative viability (XMD14-99 + Olaparib; first compound 8 µM): 0.773

NCI-H1666
relative viability (XMD14-99 + Alpelisib; first compound 0.08 µM): 0.866 | relative viability (XMD14-99 + Alpelisib; first compound 0.8 µM): 0.94 | relative viability (XMD14-99 + Alpelisib; first compound 2.53 µM): 0.805 | relative viability (XMD14-99 + Alpelisib; first compound 8 µM): 0.699 | relative viability (AZD1208 + Bortezomib; first compound 0.08 µM): 0.828 | relative viability (AZD1208 + Bortezomib; first compound 0.253 µM): 0.745 | relative viability (AZD1208 + Bortezomib; first compound 0.8 µM): 0.783 | relative viability (AZD1208 + Bortezomib; first compound 2.53 µM): 0.637 | relative viability (AZD1208 + Bortezomib; first compound 8 µM): 0.579 | relative viability (AZD1208 + Linsitinib; first compound 0.08 µM): 0.831 | relative viability (AZD1208 + Linsitinib; first compound 0.253 µM): 0.677 | relative viability (AZD1208 + Linsitinib; first compound 0.8 µM): 0.748 | relative viability (AZD1208 + Linsitinib; first compound 2.53 µM): 0.671 | relative viability (AZD1208 + Linsitinib; first compound 8 µM): 0.657 | relative viability (XMD14-99 + Olaparib; first compound 0.08 µM): 0.81 | relative viability (XMD14-99 + Olaparib; first compound 0.8 µM): 0.73 | relative viability (XMD14-99 + Olaparib; first compound 2.53 µM): 0.737 | relative viability (XMD14-99 + Olaparib; first compound 8 µM): 0.763

LC-2-ad
relative viability (XMD14-99 + Alpelisib; first compound 0.08 µM): 0.855 | relative viability (XMD14-99 + Alpelisib; first compound 0.8 µM): 0.863 | relative viability (XMD14-99 + Alpelisib; first compound 2.53 µM): 0.839 | relative viability (XMD14-99 + Alpelisib; first compound 8 µM): 0.633 | relative viability (AZD1208 + Bortezomib; first compound 0.08 µM): 1.01 | relative viability (AZD1208 + Bortezomib; first compound 0.253 µM): 0.979 | relative viability (AZD1208 + Bortezomib; first compound 0.8 µM): 0.978 | relative viability (AZD1208 + Bortezomib; first compound 2.53 µM): 0.819 | relative viability (AZD1208 + Bortezomib; first compound 8 µM): 0.833 | relative viability (AZD1208 + Linsitinib; first compound 0.08 µM): 0.803 | relative viability (AZD1208 + Linsitinib; first compound 0.253 µM): 0.673 | relative viability (AZD1208 + Linsitinib; first compound 0.8 µM): 0.833 | relative viability (AZD1208 + Linsitinib; first compound 2.53 µM): 0.801 | relative viability (AZD1208 + Linsitinib; first compound 8 µM): 0.894 | relative viability (XMD14-99 + Olaparib; first compound 0.08 µM): 0.687 | relative viability (XMD14-99 + Olaparib; first compound 0.8 µM): 0.707 | relative viability (XMD14-99 + Olaparib; first compound 2.53 µM): 0.628 | relative viability (XMD14-99 + Olaparib; first compound 8 µM): 0.498

SW 1573
relative viability (XMD14-99 + Alpelisib; first compound 0.08 µM): 0.8 | relative viability (XMD14-99 + Alpelisib; first compound 0.8 µM): 0.737 | relative viability (XMD14-99 + Alpelisib; first compound 2.53 µM): 0.697 | relative viability (XMD14-99 + Alpelisib; first compound 8 µM): 0.651 | relative viability (AZD1208 + Bortezomib; first compound 0.08 µM): 0.963 | relative viability (AZD1208 + Bortezomib; first compound 0.253 µM): 1.14 | relative viability (AZD1208 + Bortezomib; first compound 0.8 µM): 0.935 | relative viability (AZD1208 + Bortezomib; first compound 2.53 µM): 0.907 | relative viability (AZD1208 + Bortezomib; first compound 8 µM): 0.717 | relative viability (AZD1208 + Linsitinib; first compound 0.08 µM): 0.725 | relative viability (AZD1208 + Linsitinib; first compound 0.253 µM): 0.637 | relative viability (AZD1208 + Linsitinib; first compound 0.8 µM): 0.745 | relative viability (AZD1208 + Linsitinib; first compound 2.53 µM): 0.656 | relative viability (AZD1208 + Linsitinib; first compound 8 µM): 0.534 | relative viability (XMD14-99 + Olaparib; first compound 0.08 µM): 0.445 | relative viability (XMD14-99 + Olaparib; first compound 0.8 µM): 0.457 | relative viability (XMD14-99 + Olaparib; first compound 2.53 µM): 0.488 | relative viability (XMD14-99 + Olaparib; first compound 8 µM): 0.308

COR-L 105
relative viability (XMD14-99 + Alpelisib; first compound 0.08 µM): 0.851 | relative viability (XMD14-99 + Alpelisib; first compound 0.8 µM): 0.849 | relative viability (XMD14-99 + Alpelisib; first compound 2.53 µM): 0.823 | relative viability (XMD14-99 + Alpelisib; first compound 8 µM): 0.806 | relative viability (AZD1208 + Bortezomib; first compound 0.08 µM): 0.712 | relative viability (AZD1208 + Bortezomib; first compound 0.253 µM): 1.01 | relative viability (AZD1208 + Bortezomib; first compound 0.8 µM): 0.807 | relative viability (AZD1208 + Bortezomib; first compound 2.53 µM): 0.544 | relative viability (AZD1208 + Bortezomib; first compound 8 µM): 0.673 | relative viability (AZD1208 + Linsitinib; first compound 0.08 µM): 0.985 | relative viability (AZD1208 + Linsitinib; first compound 0.253 µM): 0.884 | relative viability (AZD1208 + Linsitinib; first compound 0.8 µM): 0.972 | relative viability (AZD1208 + Linsitinib; first compound 2.53 µM): 0.949 | relative viability (AZD1208 + Linsitinib; first compound 8 µM): 0.939 | relative viability (XMD14-99 + Olaparib; first compound 0.08 µM): 0.657 | relative viability (XMD14-99 + Olaparib; first compound 0.8 µM): 0.699 | relative viability (XMD14-99 + Olaparib; first compound 2.53 µM): 0.682 | relative viability (XMD14-99 + Olaparib; first compound 8 µM): 0.621

NCI-H1975
relative viability (XMD14-99 + Alpelisib; first compound 0.08 µM): 0.715 | relative viability (XMD14-99 + Alpelisib; first compound 0.8 µM): 0.605 | relative viability (XMD14-99 + Alpelisib; first compound 2.53 µM): 0.553 | relative viability (XMD14-99 + Alpelisib; first compound 8 µM): 0.378 | relative viability (AZD1208 + Bortezomib; first compound 0.08 µM): 0.415 | relative viability (AZD1208 + Bortezomib; first compound 0.253 µM): 0.404 | relative viability (AZD1208 + Bortezomib; first compound 0.8 µM): 0.304 | relative viability (AZD1208 + Bortezomib; first compound 2.53 µM): 0.353 | relative viability (AZD1208 + Bortezomib; first compound 8 µM): 0.357 | relative viability (AZD1208 + Linsitinib; first compound 0.08 µM): 0.991 | relative viability (AZD1208 + Linsitinib; first compound 0.253 µM): 1 | relative viability (AZD1208 + Linsitinib; first compound 0.8 µM): 0.911 | relative viability (AZD1208 + Linsitinib; first compound 2.53 µM): 0.981 | relative viability (AZD1208 + Linsitinib; first compound 8 µM): 0.975 | relative viability (XMD14-99 + Olaparib; first compound 0.08 µM): 0.705 | relative viability (XMD14-99 + Olaparib; first compound 0.8 µM): 0.861 | relative viability (XMD14-99 + Olaparib; first compound 2.53 µM): 0.743 | relative viability (XMD14-99 + Olaparib; first compound 8 µM): 0.522
